Experimental data published in patent EP2951180B1, “2,6,7,8 SUBSTITUTED PURINES AS HDM2 INHIBITORS” (Merck Sharp & Dohme Corp., priority 2013, dated 2014).

These molecules were tested against T1, HDM2 (Homo sapiens, UniProt Q00987) (assay: HDM2 FRET assay (inhibition of binding of FITC labeled p53-pocket peptide to HDM2)). Conditions: Table 11; read-out: FRET IC50.
T1 construct: Thioredoxin (N); made in house; host or cells: E. coli strain BL21(DE3)Rosetta
Outline: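 Displacement of FITC-p53 peptide (3 nM) from His-tagged HDM2 (0.5 nM) is measured by Tb-to-fluorescein FRET in PBS, 0.01% BSA, 0.01% Tween-20. IC50 values derive from 10-point curves.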

T1 sequence (Q00987 17-125): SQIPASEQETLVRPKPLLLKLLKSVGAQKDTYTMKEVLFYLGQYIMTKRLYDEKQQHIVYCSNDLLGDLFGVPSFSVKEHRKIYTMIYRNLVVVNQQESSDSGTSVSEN

| SMILES | IC50 [µM] |
| --- | --- |
| C[C@@H]1COCCN1c1nc2nc(-c3noc(=O)[nH]3)nc(N[C@H](C)C3CCC3)c2n1C[C@H]1CC[C@H](C)CC1 [Example 11.65, 3-(6-{[(1R)-1-cyclobutylethyl]amino}-7-[(trans-4-methylcyclohexyl)methyl]-8-[(3R)-3-methylmorpholin-4-yl]-7H-purin-2-yl)-1,2,4-oxadiazol-5(4H)-one] | 0.00145 |
| C[C@@H](Nc1nc(-c2noc(=O)[nH]2)nc2nc(N3CCOC[C@@H]3C)n(C[C@H]3CC[C@H](C)CC3)c12)C1CCC1 [Example 11.66, 3-(6-{[(1R)-1-cyclobutylethyl]amino}-7-[(trans-4-methylcyclohexyl)methyl]-8-[(3S)-3-methylmorpholin-4-yl]-7H-purin-2-yl)-1,2,4-oxadiazol-5(4H)-one] | 0.0058 |
| C[C@@H](Nc1nc(-c2noc(=O)[nH]2)nc2nc(N3CCOC[C@@H]3c3ccccc3)n(C[C@H]3CC[C@H](C)CC3)c12)C1CCC1 [Example 11.67, 3-(6-{[(1R)-1-cyclobutylethyl]amino}-7-[(trans-4-methylcyclohexyl)methyl]-8-[(3S)-3-phenylmorpholin-4-yl]-7H-purin-2-yl)-1,2,4-oxadiazol-5(4H)-one] | 0.0108 |
| C[C@@H](Nc1nc(-c2noc(=O)[nH]2)nc2nc(N(C)Cc3ccncn3)n(C[C@H]3CC[C@H](C)CC3)c12)C1CCC1 [Example 11.70, 3-(6-{[(1R)-1-cyclobutylethyl]amino}-7-[(trans-4-methylcyclohexyl)methyl]-8-[methyl(pyrimidin-4-ylmethyl)amino]-7H-purin-2-yl)-1,2,4-oxadiazol-5(2H)-one] | 0.0228 |
| C[C@@H](Nc1nc(-c2noc(=O)[nH]2)nc2nc(N(C)Cc3cnn(C)c3)n(C[C@H]3CC[C@H](C)CC3)c12)C1CCC1 [Example 11.71, 3-(6-{[(1R)-1-cyclobutylethyl]amino}-7-[(trans-4-methylcyclohexyl)methyl]-8-{methyl[(1-methyl-1H-pyrazol-4-yl)methyl]amino}-7H-purin-2-yl)-1,2,4-oxadiazol-5(2H)-one] | 0.0243 |
| C[C@@H](Nc1nc(-c2noc(=O)[nH]2)nc2nc(N(C)Cc3cnccn3)n(C[C@H]3CC[C@H](C)CC3)c12)C1CCC1 [Example 11.72, 3-(6-{[(1R)-1-cyclobutylethyl]amino}-7-[(trans-4-methylcyclohexyl)methyl]-8-[methyl(pyrazin-2-ylmethyl)amino]-7H-purin-2-yl)-1,2,4-oxadiazol-5(2H)-one] | 0.00598 |
| C[C@@H](Nc1nc(-c2noc(=O)[nH]2)nc2nc(N(C)Cc3cncs3)n(C[C@H]3CC[C@H](C)CC3)c12)C1CCC1 [Example 11.73, 3-(6-{[(1R)-1-cyclobutylethyl]amino}-7-[(trans-4-methylcyclohexyl)methyl]-8-[methyl(1,3-thiazol-5-ylmethyl)amino]-7H-purin-2-yl)-1,2,4-oxadiazol-5(2H)-one] | 0.0115 |
| C[C@@H](Nc1nc(-c2noc(=O)[nH]2)nc2nc(N(C)Cc3cscn3)n(C[C@H]3CC[C@H](C)CC3)c12)C1CCC1 [Example 11.74, 3-(6-{[(1R)-1-cyclobutylethyl]amino}-7-[(trans-4-methylcyclohexyl)methyl]-8-[methyl(1,3-thiazol-4-ylmethyl)amino]-7H-purin-2-yl)-1,2,4-oxadiazol-5(2H)-one] | 0.133 |
| C[C@@H](Nc1nc(-c2noc(=O)[nH]2)nc2nc(N(C)Cc3noc(C4CC4)n3)n(C[C@H]3CC[C@H](C)CC3)c12)C1CCC1 [Example 11.75, 3-(6-{[(1R)-1-cyclobutylethyl]amino}-8-{[(5-cyclopropyl-1,2,4-oxadiazol-3-yl)methyl](methyl)amino}-7-[(trans-4-methylcyclohexyl)methyl]-7H-purin-2-yl)-1,2,4-oxadiazol-5(2H)-one] | 0.00958 |
| Cc1csc(CN(C)c2nc3nc(-c4noc(=O)[nH]4)nc(N[C@H](C)C4CCC4)c3n2C[C@H]2CC[C@H](C)CC2)n1 [Example 11.76, 3-(6-{[(1R)-1-cyclobutylethyl]amino}-7-[(trans-4-methylcyclohexyl)methyl]-8-{methyl[(4-methyl-1,3-thiazol-2-yl)methyl]amino}-7H-purin-2-yl)-1,2,4-oxadiazol-5(2H)-one] | 0.00819 |
